Residues, ends and D or L forms follow the SMILES beside them. *: point of attachment. Cbz = O=C(OCc1ccccc1)*
First: COc1ccc(C(=O)N2CCCC2=O)cc1
Second: Nc1ccc(N2C(=O)CCCC2=O)cc1
The melting point of the first is lower: 120 °C for the first, 214 to 215 °C for the second.

Compared with `CCN(CC)C(=O)c1cnn(C)c1C(=O)Nc1ccn2nc(-c3ccccc3)nc2c1`, `CCOC(=O)C=C(c1ccc(-c2ccccc2)cc1)C1(n2cncn2)CC1` is lower in melting point: 177 to 179 °C for the first, 98 to 100 °C for the second.

Compared with `O=C(NCC12CC3CC(CC(C3)C1)C2)c1cccc(O)c1Cl`, `O=C(NC1C2CC3CC(C2)CC1C3)c1cc(-c2ccc(Cl)cc2)n(Cc2ccc(Cl)cc2Cl)n1` (stereo not given) is lower in melting point: 234 to 235 °C for the first, 154 °C for the second.

First: CC(=O)NCc1ccsc1
Second: CCCC[C@H](NC(=O)OC(C)(C)C)C(=O)CSCc1ccsc1
The melting point of the first is higher: 46 to 47 °C for the first, 43 to 45 °C for the second.

First: COC(=O)CCc1cc2cc(F)ccc2n1S(=O)(=O)c1ccccc1
Second: COC(=O)c1ccc(/C=C/c2cnc3ccccc3c2)cc1
The melting point of the first is lower: 79 to 80 °C for the first, 92 to 94 °C for the second.

Compared with `c1ccc(-c2ccc3[nH]c4ccccc4c3c2)cc1`, `c1ccc(COc2ccc(-c3cc4ccccc4[nH]3)cc2)cc1` is higher in melting point: 221 °C for the first, 251 °C for the second.

First: COC(=O)c1ccc2nc(SCCN3CCN(CC(=O)Nc4c(C(C)C)cccc4C(C)C)CC3)oc2c1C(=O)OC
Second: CCOP(=O)(CNC(=O)Nc1c(C(C)C)cccc1C(C)C)OCC
The melting point of the first is higher: 186 to 187 °C for the first, 132 to 134 °C for the second.

First: CC(C)C1=NCCSC1=NOC(=O)N(C)SN1CCOCC1
Second: COc1cc(N)c(Cl)cc1C(=O)CCC1CCN(C(=O)OC(C)(C)C)CC1
The melting point of the first is lower: 127 to 128 °C for the first, 133 to 134 °C for the second.

`Cc1cc(Oc2c(Cl)cc(C(F)(F)F)cc2Cl)nn1C(=S)NC(C)C` and `Cn1c(C(F)(F)F)cc(=O)n(-c2cc(OCC3CO3)c(Cl)cc2F)c1=O` (stereo not given) cannot be ordered by melting point: 92 to 94 °C for the first, 93 to 96 °C for the second.

First: CC(=O)c1c(Cl)cc(Cl)cc1OCC(=O)O
Second: Cc1ccc2c(c1)C(c1ccc(OCC(=O)O)cc1)C(=O)O2 (stereo not given)
The melting point of the first is lower: 110 °C for the first, 198 to 203 °C for the second.

Compared with `Fc1ccc(-c2nc(CI)co2)cc1`, `CC(C)=CCN1N=C(c2ccc(F)cc2)c2cc(Cl)ccc2CS1(=O)=O` is higher in melting point: 100 to 102 °C for the first, 168 to 169 °C for the second.

First: COc1cc(COc2cc(N)c(Cl)cc2C(=O)CCCCN2CCC(C)(C)CC2)cc(OC)c1
Second: CCCc1c(OCCCCCc2c(Cl)c(Cl)c(Cl)c(OC)c2OC)ccc(C(=O)O)c1O
The melting point of the first is lower: 135 to 136 °C for the first, 148 to 150 °C for the second.

Compared with `CCCCCCCCCCOC1CCC(=O)N1` (stereo not given), `CCCCOC1C=CC(=O)N1S(=O)(=O)c1cccs1` (stereo not given) is higher in melting point: 44 to 46 °C for the first, 56 to 57 °C for the second.

Compared with `C1=Cc2ccc3c(c2CC1)=C1CC=c2ccccc2=C1N=3`, `O=C1Cc2c(cccc2-c2ccccc2)N1` is lower in melting point: 218 °C for the first, 192 to 194 °C for the second.

First: CCOC(=O)C1=C(COCCn2c(C)nc(C)c2C)NC2=C(C(=O)OC2)C1c1ccccc1Cl (stereo not given)
Second: CC(=O)NCCCCOC1c2ccccc2C(=O)N1c1ccc2ccc(Cl)nc2n1 (stereo not given)
The melting point of the first is higher: 215 to 217 °C for the first, 120 °C for the second.

`CN(C)C(=O)c1c(C(=O)CBr)c2cc(Cl)ccc2n1C(=O)OC(C)(C)C` and `Cc1cc(Cl)ccc1NC(=O)NC(=O)C(Cl)CCl` (stereo not given) cannot be ordered by melting point: 110 to 115 °C for the first, 111 to 113 °C for the second.

Compared with `COc1ccc2c(c1)C(=NO)c1c-2c(N2CCNCC2)nc2ccccc12`, `COc1ccnc2c1C(=O)CC(c1ccccc1Cl)C2` (stereo not given) is lower in melting point: 146 to 147 °C for the first, 116 to 117 °C for the second.

First: CCN(C)CCOc1ccc(/C=C/C(=O)O)cc1
Second: CC(=O)Cc1ccc(SCCCBr)cc1
The melting point of the first is higher: 206 °C for the first, 40 to 41 °C for the second.

`Cc1ccc2c(c1)C=Cc1cc(C)ccc1C2c1cn(-c2ccnc(N(C)CC(=O)Nc3nc(CC(=O)O)cs3)n2)c(=O)[nH]c1=O` and `Cc1cccc(NC(=O)NC2N=C(c3ccccc3F)c3ccccc3N(Cc3nccc4c3CCCC4)C2=O)c1` (racemic) cannot be ordered by melting point: 210 °C for the first, 207 to 210 °C for the second.

First: COc1cc(O)ccc1N
Second: COc1ccc(C(=O)c2ccccc2N)cn1
The melting point of the first is higher: 168 to 170 °C for the first, 60 to 62 °C for the second.

Compared with `Cc1cccc(SSc2cccc(C)c2C(=O)Nc2ccc(S(N)(=O)=O)cc2)c1C(=O)Nc1ccc(S(N)(=O)=O)cc1`, `CCN(c1ccc(OC)cc1)S(=O)(=O)c1cccc(C(=O)Nc2ccc(C#N)cc2)c1` is lower in melting point: 273 to 275 °C for the first, 168 to 169 °C for the second.

Compared with `CC(=O)Nc1cccc(Nc2ncnc3[nH]cc(C(=O)c4ccccc4C)c23)c1`, `CSc1ccc(C(=O)Nc2cccnc2C(=O)Nc2ccc(Cl)cn2)c(OCCN)c1` is lower in melting point: > 300 °C for the first, 158 to 159 °C for the second.

First: COc1ccc(C(=O)c2ccc(OC)cc2F)c(C)c1
Second: Nc1nc(Nc2cccnc2)sc1C(=O)c1ccc(OC(F)F)cc1
The melting point of the first is lower: 88 to 90 °C for the first, 143 °C for the second.

Going from `O=C1CCC(c2ccc(-c3ccc([N+](=O)[O-])cc3F)cc2)O1` (stereo not given) to `N#CC1=C(n2cccc2)Oc2c(ccc3cc(C(=O)O)c(O)cc23)C1c1cccc([N+](=O)[O-])c1` (stereo not given), the melting point rises from 94 °C to > 230 °C.

First: N#CCc1nc(C(F)(F)F)ccc1C(=O)O
Second: O=C(O)c1c(-c2ccccc2)nc2c(C(F)(F)F)cccc2c1O
The melting point of the first is lower: 152 to 153 °C for the first, 204 °C for the second.

First: CCN1CN=C2SCC(O)(c3ccc(Br)cc3)N2C1 (stereo not given)
Second: CC(CC#N)N1C(=O)C2(OCCCO2)c2cc(Br)ccc21 (stereo not given)
The melting point of the first is higher: 132 to 134 °C for the first, 112 to 113 °C for the second.

Compared with `O=S(=O)(Nc1ccc2c(OCc3csc(-c4ccc(OC(F)(F)F)cc4)n3)cccc2c1)C(F)(F)F`, `Cc1cc(-c2nc3cccnn3c2-c2ccnc(NC(=O)NCC(F)(F)F)c2)ccc1F` is higher in melting point: 131 to 132 °C for the first, 229 to 230 °C for the second.

First: Cc1ccccc1OCCCc1oc(-n2ccnc2)nc1-c1ccc(Cl)cc1
Second: Cc1ccc(OCc2ccccc2)c2[nH]c(-c3ccccc3)nc12
The melting point of the first is lower: 113 to 114 °C for the first, 221 to 224 °C for the second.

Compared with `CC1(Br)CS(=O)C2C(NC(=O)Cc3ccccc3)C(=O)N2C1C(=O)OCC(Cl)(Cl)Cl` (stereo not given), `O=C(OCc1ccccc1)N1C[C@@H](O)[C@H](Oc2cccc(Cl)c2Cl)C1` (relative stereo) is lower in melting point: 159 to 161 °C for the first, 130 to 132 °C for the second.

Compared with `CN(c1nc(-c2cc3ccccc3[nH]c2=O)cs1)S(=O)(=O)c1ccc(Br)cc1`, `CN(C)c1ccccc1SCc1noc(CSc2ccc(Br)cc2)n1` is lower in melting point: 280 to 282 °C for the first, 78 °C for the second.

First: CNc1nc(OC(C)C)ccc1[N+](=O)[O-]
Second: CCCOc1ccc2[nH]c3c([N+](=O)[O-])ccc(Cl)c3c(=O)c2c1
The melting point of the first is lower: 75 to 76 °C for the first, 174 to 175 °C for the second.

First: CCN1CC2=C(C1)CN(c1c(F)cc3c(=O)c(C(=O)O)cn(C4CC4)c3c1F)C2
Second: CC(=O)NC(C)C(=O)Nc1ccc2[nH]cc(C(=O)O)c(=O)c2c1 (stereo not given)
The melting point of the first is lower: 188 to 192 °C for the first, 196 to 200 °C for the second.

First: CC(=O)C1(CCC(=O)OC(C)(C)C)CCCCC1=O (stereo not given)
Second: CC(C)(C)OC(=O)N1CCC(Sc2cc(C(C)(C)C)c(O)c(C(C)(C)C)c2)CC1
The melting point of the first is lower: 47 to 53 °C for the first, 151 to 152 °C for the second.

Compared with `CC12CC(N3CCC4(CC3)OCCO4)C(O)CC1CCC1C2CCC2(C)C(O)C(N3CCC4(CC3)OCCO4)CC12` (stereo not given), `CC12CCC3c4ccc(C(=O)O)cc4CCC3C1CCC2C(=O)c1cccs1` (stereo not given) is lower in melting point: 180 to 182 °C for the first, 177 to 179 °C for the second.

First: O=C(O)c1cccc2nnsc12
Second: O=c1[nH]nc(-c2ccccc2O)o1
The melting point of the first is higher: 239 to 240 °C for the first, 198 to 200 °C for the second.

`CNC(=O)CC1CN=C(c2cc3cc(Oc4ccc(S(C)(=O)=O)nc4)c(F)c(OCCOC)c3[nH]2)S1` (stereo not given) and `CS(=O)(=O)NC(=O)NCCCc1ccc2c(NC(=O)CC3CCCCC3)c(Cl)ccc2n1` fall in the same range of melting point: 151 to 152 °C for the first, 151 to 152 °C for the second.

Compared with `CN(C)CCN1CCC(=Cc2cc(C(C)(C)C)c(O)c(C(C)(C)C)c2)C1=O`, `CC(C)(C)c1cc(C2N[C@H](C(=O)O)CS2)cc(C(C)(C)C)c1O` (stereo not given in full) is higher in melting point: 150 °C for the first, 163 to 165 °C for the second.

First: CC(=O)c1ccc2oc3ncccc3c(=O)c2c1
Second: Nc1cc(-c2cccnc2)nc(-c2ccco2)n1
The melting point of the first is lower: 195 to 196 °C for the first, 233 °C for the second.

First: O=C(Nc1ccc2[nH]cnc2c1)C(=O)N1CCC(Cc2ccccc2)CC1
Second: COC(=O)C(Cc1ccccc1)NC(=O)C(CC(N)=O)NC(=O)OCc1ccccc1 (stereo not drawn) (Cbz-Asn-Phe-OMe; configuration not given here)
The melting point of the first is lower: 85 to 87 °C for the first, 196 to 197 °C for the second.

Compared with `COc1cc(Nc2c(C#N)cnc3cc(/C=C/c4ccncc4)ccc23)c(Cl)cc1Cl`, `COc1c(C=Cc2ccc(C=CC3=C(C#N)C(=C(C#N)C#N)OC3(c3ccccc3)C(F)(F)F)s2)cc2c3c1CCCN3CCC2` (stereo not given) is lower in melting point: 218 to 219 °C for the first, 156 to 160 °C for the second.

First: CC1=CC(N(C)Cc2ccccc2)C(O)C(C)(C)CC1=O (stereo not given)
Second: COC(=O)C(C)(NC1OC(=O)C2C3C=CC(C3)C12)c1ccccc1 (stereo not given)
The melting point of the first is lower: 78.5 to 80 °C for the first, 120 °C for the second.

First: CC(=O)C(=[N+]=[N-])C(=O)CCc1ccc(S(N)(=O)=O)cc1
Second: CCOC(=O)C(O)Cc1ccc(OCCNC(=O)c2ccc(-c3ccccn3)cc2)cc1 (stereo not given)
The melting point of the first is higher: 110 to 112 °C for the first, 97 to 99 °C for the second.

First: Cc1c(Cl)nc(NC=O)nc1Cl
Second: COC(=O)c1nc(-c2ccco2)cc(N)c1Cl
The melting point of the first is lower: 123 to 124 °C for the first, 145 to 150 °C for the second.

First: CCC(C)(C)NC(=O)n1nc(C)n(NC)c1=O
Second: CC(C)N(Sc1nc2ccccc2s1)C(C)(C)C
The melting point of the first is higher: 98 °C for the first, 68 to 70 °C for the second.

Compared with `O=C1C(=Cc2ccoc2)CCc2cc(OCCn3ccnc3)ccc21`, `C(=C\c1nc(COc2ccc(CCCCn3ccnn3)cc2)co1)/c1ccccc1` is higher in melting point: 116 to 117 °C for the first, 125 to 126 °C for the second.

First: CS(=O)(=O)Nn1c(=O)[nH]c2cc(C(F)(F)F)c(N3CCC3)cc2c1=O
Second: Cc1nnc2ccc(-c3cccc(N4CCCCC4=O)c3)nn12
The melting point of the first is higher: 266 to 283 °C for the first, 204 to 207 °C for the second.

Compared with `Cc1cc(C#N)cn2cc(-c3ccc(Br)o3)nc12`, `Oc1ccnc(Nc2cccc(Cl)c2)n1` is higher in melting point: 204 to 205 °C for the first, 250 to 252 °C for the second.

First: N=C(NCc1cccnc1)NN=Cc1c(Cl)cccc1Cl
Second: CC(O)(c1ccccc1)c1ccncc1 (stereo not given)
The melting point of the first is higher: 148 to 151 °C for the first, 141 to 144 °C for the second.

Compared with `CC12CCC(C1)C1(C)Oc3ccc(C(O)COc4ccc(C(=O)O)cc4)cc3C21C` (stereo not given), `CCOC(=O)c1cn(C(c2ccccc2)(c2ccccc2)c2ccccc2)nn1` is higher in melting point: 123 °C for the first, 201 to 203 °C for the second.

First: CCCCCc1c(-c2ccc3cc(OCc4nnn[nH]4)ccc3c2)n(Cc2ccccc2)c2ccccc12
Second: CC1Oc2cc3nc(S)[nH]c3cc2O1
The melting point of the first is lower: 109 to 112 °C for the first, > 300 °C for the second.
